Measurements as given in patent US12569170B2, “Paramagnetic sodium NMR macrocyclic-based biosensors, and associated methods” (Yale University, priority 2021, dated 2026).

Key:
[1] = Effect of cation competition on ^23Na chemical shift and linewidth in vitro; assay type: physicochemical; details: for ^23Na chemical shift / ^23Na linewidth: 150 mM NaCl
Procedure: FIGS. 13A-13C depicts effect of cation competition on ^23Na chemical shift and linewidth induced by 2 mM TmDOTP^5−. (FIG. 13A)^23Na NMR spectra for 150 mM NaCl solutions containing 2 mM TmDOTP^5− alone, and in the presence of 2 mM Ca^2+, 2 mM Mg^2+, 10 mM K^+, and all three of these ions. Ca^2+, Mg^2+, and K^+ were introduced as the salts CaCl2, MgCl2, and KBr, respectively. These concentrations were all chosen to represent physiological concentrations in the interstitial space. […] Chemical shift ranged between 2.433 ppm (FIG. 13B, alone) and 2.352 ppm (FIG. 13B, all), representing only a 3% change in the presence of all competing cations. Linewidth ranged between 0.2433 ppm (FIG. 13C, alone) and 0.2285 ppm (FIG. 13C, all), representing only a 6% change in the presence of all competing cations.
Upon translation of the present in vitro results to in vivo situations, certain confounding factors must be addressed. In the interstitial space, there are additional cations such as calcium (Ca^2+), magnesium (Mg^2+) and K^+ which will also bind to anionic contrast agents like TmDOTP^5−. However, physiologically their concentrations are low compared to Na^+. […] Additionally, there is a contribution to the chemical shift from bulk magnetic susceptibility (BMS) changes brought about by TmDOTP^5− in addition to the hyperfine shifts induced by interactions with Na^+. Experiments were performed on different DOTP^8− salts in phantoms parallel and perpendicular to the main magnetic field B0, and also spherical phantoms in which there was no BMS contribution. Only a small portion (˜2%) of the total chemical shift for TmDOTP^5− was due to BMS arising due to anisotropy of the paramagnetic susceptibility, and the remainder was the hyperfine shift.

[2] = system: rat brain bearing U251, RG2 or U87 tumors; assay: In vivo ^23Na-MRSI peak separation in tumor-bearing rat brain
Source text: Before TmDOTP^5− delivery, there was a single ^23Na peak at 0 ppm corresponding to Na^+T, observed ubiquitously both inside and outside the tumor. Upon TmDOTP^5− delivery, compartmental ^23Na peak separation was achieved. Within the tumor, the compromised BBB permitted greater TmDOTP^5− extravasation and accumulation in the interstitial space, explicitly yielding three separate ^23Na peaks emerging from the original single ^23Na resonance. […] In the tumor, the most-shifted peak was Na^+b because the blood compartment had the largest TmDOTP^5−, which was corroborated by removing blood samples from the animal and observing the same chemical shift in vitro (FIG. 2D). In the tumor, the intermediate peak in the middle corresponded to the interstitial Na^+e resonance (FIG. 2B). The splitting was also evident outside of the tumor (i.e., in healthy tissue) where TmDOTP^5− extravasated to a much lesser extent compared to tumor tissue (FIG. 2C). The Na^+b peak was still most-shifted, whereas the Na^+i and Na^+e peaks were less discernible. When there was significant overlap between adjacent peaks, instead of peak integrals the peak amplitudes were used to discriminate signals. The shifted bulk Na^+e peak in healthy tissue confirmed that whatever degree of TmDOTP^5− extravasation occurred was sufficient to affect the interstitial ^23Na signals, albeit less pronounced than tumoral Na^+e. The unshifted Na^+i resonance was still at 0 ppm, but partially eclipsed by the bulk Na^+e peak. These same patterns inside/outside the tumor were observed throughout the brain.
The in vivo protocol was approved by the Institutional Animal Care & Use Committee of Yale University, and all procedures were performed in accordance with these enforced guidelines and regulations, and in compliance with the ARRIVE guidelines. Rats (athymic/nude and Fischer 344) were purchased through Yale University vendors. U251, U87 and RG2 GBM cell lines were purchased from American Type Culture Collections (Manassas, VA, USA). The U251, U87, and RG2 cells were cultured and grown in a 5% CO2 incubator at 37° C. in either low-glucose (U251 cells) or high-glucose (U87 and RG2 cells) Dulbecco's Modified Eagle's Medium (DMEM) (Thermo Fisher Scientific, Waltham, MA, USA) with 10% fetal bovine serum (FBS) and 1% penicillin-streptomycin. Cells for tumor inoculation were harvested upon reaching at least 80% confluence and were prepared in FBS-free DMEM. Athymic/nude rats were injected intracranially with 2-5×10^6 tumor cells either from the U251 (n=6) or the U87 (n=8) cell line (5-μL aliquot) while placed in a stereotactic holder on a heating pad. Fischer 344 rats were injected with 1.25×10^3 RG2 cells (n=8). During the procedure, animals were anesthetized via isoflurane (Isothesia) inhalation (3-4%), purchased from Covetrus (Portland, ME, USA). Dissection was performed to the cranium, and a hole was drilled into the skull to allow for stereotactic needle insertion. Injections were performed using a 10-μL Hamilton syringe with a 26G needle into the right striatum for majority of the experiments, 3 mm to the right of the bregma and 3 mm below the dura. The cells were injected steadily at 1 μL/min over 5 min and the needle was left in place for an additional 5 min post-injection. The syringe was then gradually removed to preclude any backflow of cells. The hole in the skull was sealed with bone wax, and the incision site was sutured after removal of the syringe. Animals were given bupivacaine (2 mg/kg at incision site) and carprofen (5 mg/kg, subcutaneously) during the tumor inoculation to relieve pain. Carprofen was subsequently given once per day for two days post-inoculation.
Rats were weighed daily and kept on a standard diet of rat chow and water. Tumor growth was monitored every 3-4 days using ^1H-MRI under isoflurane anesthesia. When the tumor had reached a minimum mean diameter of 3 mm at 20-24 days post-injection, each animal was imaged using ^1H-MRI and ^23Na-MRSI. […]

[3] = 2 mM TmDOTP^5− with 2 mM Ca^2+, 2 mM Mg^2+ and 10 mM K^+ (all)
[4] = intravenous ~1 μmol/g, all tumors
[5] = rats bearing RG2 and U87 tumors, tumor voxels

## O=P([O-])([O-])CN1CCN(CP(=O)([O-])[O-])CCN(CP(=O)([O-])[O-])CCN(CP(=O)([O-])[O-])CC1.[Na+].[Na+].[Na+].[Na+].[Na+].[Tm+3] [TmDOTP^5−, sodium thulium (III) 1,4,7,10-tetraazacyclododecane-1,4,7,10-tetrakis(methylenephosphonate)]
[1]; 2 mM TmDOTP^5−, alone vs all
  change in ^23Na chemical shift in the presence of all competing cations: 3%
  change in ^23Na linewidth in the presence of all competing cations: 6%
[1]; 2 mM TmDOTP^5− alone
  ^23Na chemical shift: 2.433 ppm
  ^23Na linewidth: 0.2433 ppm
[1]; [3]
  ^23Na chemical shift: 2.352 ppm
  ^23Na linewidth: 0.2285 ppm
[1]; typical in vivo concentrations of Ca^2+, Mg^2+, K^+
  changes in ^23Na chemical shift and linewidth by cationic competition: negligible changes
[2]; after TmDOTP^5−
  observed ^23Na linewidths in vivo: ~0.4 ppm
[2]; blood samples from the U251 tumor-bearing rat
  ^23Na blood peak shift, in vitro analysis of blood samples: around 2 ppm
[2]; from range of shifts observed and shiftability 2.77 ppm/mM
  TmDOTP^5− concentration in the tumor vasculature: no more than 0.7 mM
[2]; intravenous ~1 μmol/g
  separation of blood and interstitial ^23Na peaks: ~1.5 ppm
[2]; [4]
  ^23Na shift in blood: ~2 ppm
  ^23Na shifts in tumor tissue: 0.5-1 ppm
[2]; rat bearing U251 tumor, after TmDOTP^5− delivery
  ^23Na shift of blood sodium (Na^+b) peak: around 2 ppm
[2]; rat bearing U251 tumor, ~1 μmol/g BW
  ^23Na shift of intracellular sodium (Na^+i) peak: 0 ppm
[2]; rats bearing RG2 and U87 tumors
  Na^+e shift in the tumor: 0.5-1 ppm
[2]; [5]
  Na^+b shift: around 2 ppm
  Na^+i shift: 0 ppm
